Test results reported in the supplement of paper PMC10307832.

What was measured:
Test in all cases: relative viability (nuclei count vs DMSO), 5 days (fraction); higher = more cells survive
[1] = compound: C1CC2=C(C1)C=C(C=C2)OC3=NC(=C4C(=N3)N(C=N4)CC5=CC=C(C=C5)C6=CC=CC=C6)N[C@@H](CC7=CC=CC=C7)CO [QS11] + COc1cccc2cc(-c3nc([C@H]4CC[C@H](C(=O)O)CC4)n4ncnc(N)c34)[nH]c12 [OSI-027] (partner 0.5 µM)
Procedure, shortened: (§1)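 The day after seeding in 1536-well plates, lung cancer cell lines were treated by pin tool with a single drug, or with a fixed anchor-drug dose together with five library-drug doses (not always all listed) in √10 steps. After 5 days, a combined fix-and-stain solution (final 0.05% Triton X-100, 1% formaldehyde, 1 ug/ml Hoechst) was added. Nuclei counted on 4× images gave relative viability as treated counts over vehicle counts, reported as the median of duplicate plates.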

[2] = compound: C1CC2=C(C1)C=C(C=C2)OC3=NC(=C4C(=N3)N(C=N4)CC5=CC=C(C=C5)C6=CC=CC=C6)N[C@@H](CC7=CC=CC=C7)CO [QS11] + Nc1ncn([C@H]2C[C@H](O)[C@@H](CO)O2)c(=O)n1 [Decitabine] (partner 2 µM)
Procedure, shortened: as §1

[3] = compound: CC1=C(C=C(C=C1)NC(=O)C2=CC(=CC=C2)C(C)(C)C#N)NC3=CC4=C(C=C3)N=CN(C4=O)C [AZ628] + NC(=O)Nc1cc(-c2cccc(F)c2)sc1C(=O)N[C@H]1CCCNC1 [AZD7762] (partner 0.2 µM)
Procedure, shortened: as §1

[4] = compound: CC1=C(C=C(C=C1)NC(=O)C2=CC(=CC=C2)C(C)(C)C#N)NC3=CC4=C(C=C3)N=CN(C4=O)C [AZ628] + CC1(C)CCC(c2ccc(Cl)cc2)=C(CN2CCN(c3ccc(C(=O)NS(=O)(=O)c4ccc(N[C@H](CCN5CCOCC5)CSc5ccccc5)c(S(=O)(=O)C(F)(F)F)c4)cc3)CC2)C1 [Navitoclax] (partner 0.5 µM)
Procedure, shortened: as §1

Cell Line	relative viability ([1]; first compound 0.08 µM)	relative viability ([1]; first compound 0.253 µM)	relative viability ([1]; first compound 0.8 µM)	relative viability ([1]; first compound 2.53 µM)	relative viability ([1]; first compound 8 µM)	relative viability ([2]; first compound 0.08 µM)	relative viability ([2]; first compound 0.253 µM)	relative viability ([2]; first compound 0.8 µM)	relative viability ([2]; first compound 2.53 µM)	relative viability ([2]; first compound 8 µM)	relative viability ([3]; first compound 0.08 µM)	relative viability ([3]; first compound 0.253 µM)	relative viability ([3]; first compound 0.8 µM)	relative viability ([3]; first compound 2.53 µM)	relative viability ([3]; first compound 8 µM)	relative viability ([4]; first compound 0.08 µM)	relative viability ([4]; first compound 0.253 µM)	relative viability ([4]; first compound 0.8 µM)	relative viability ([4]; first compound 2.53 µM)	relative viability ([4]; first compound 8 µM)
NCI-H1734	0.66	0.548	0.594	0.517	0.49	0.538	0.532	0.478	0.457	0.51	0.504	0.56	0.561	0.473	0.373	0.864	0.718	0.818	0.791	0.502
NCI-H1755	0.685	0.725	0.592	0.604	0.486	0.625	0.715	0.535	0.685	0.671	0.466	0.385	0.392	0.429	0.356	0.998	1	1.05	1.02	0.956
NCI-H1792	0.731	0.969	0.65	0.565	0.82	–	0.536	0.518	0.498	0.58	0.776	0.668	0.575	0.541	0.385	0.682	0.619	0.545	0.591	0.44
NCI-H1793	0.248	0.27	0.277	0.341	0.332	0.474	0.424	0.51	0.477	0.453	0.52	0.244	0.419	0.319	0.177	0.533	0.511	0.53	0.384	0.285
